Data taken from ChEMBL document CHEMBL3045775, “Methyl jasmonate-induced suppression of anthracnose rot in tomato fruit” (Crop Prot, 2007).
Active and inactive are the calls of the source. No cut-off for these calls is given here.

Assays:
Colletotrichum coccodes [1] = assay: Antifungal activity against Colletotrichum coccodes infected tomato fruit assessed as decrease in fruit cracking at 100% v/v incubated for 7 days post-inoculation relative to control; format: functional, organism-based
Colletotrichum coccodes [2] = assay: Antifungal activity against Colletotrichum coccodes infected tomato fruit assessed as spore germination at 44.8 ul/l incubated for 7 days post-inoculation followed by spore inoculation on medium measured after 24 hr (reference value: 96.5 +/- 2.66%); format: functional
Colletotrichum coccodes [3] = assay: Antifungal activity against Colletotrichum coccodes assessed as colony area at 44.8 ul/l incubated for 7 days post-inoculation (reference value: 9.55 +/- 0.25 cm2); format: functional
Colletotrichum coccodes [4] = assay: Antifungal activity against Colletotrichum coccodes infected tomato fruit assessed as lesion area at 44.8 ul/l inoculated on fruit pretreated with compound for 7 days measured after 7 days (reference value: 4.33 +/- 0.6 cm2); format: functional
Colletotrichum coccodes [5] = assay: Antifungal activity against Colletotrichum coccodes assessed as spore production at 44.8 ul/l incubated for 9 days post-inoculation (reference value: 7.1 +/- 2.44 10^5/ml); format: functional
Colletotrichum coccodes [6] = assay: Antifungal activity against Colletotrichum coccodes assessed as spore germination at 44.8 ul/l incubated for 24 hr post-inoculation (reference value: 100%); format: functional
Colletotrichum coccodes [7] = assay: Antifungal activity against Colletotrichum coccodes assessed as spore germination at 44.8 ul/l inoculated on medium pretreated with compound for 24 hr followed by compound wash-out measured after 24 hr (100%); format: functional
Colletotrichum coccodes [8] = assay: Induction of Colletotrichum coccodes growth infected tomato fruit assessed as fruit cracking at 100% v/v incubated for 7 days post-inoculation relative to control; format: organism-based; details: in vivo, 168 h
Colletotrichum coccodes [9] = assay: Antifungal activity against Colletotrichum coccodes assessed as spore production at 44.8 ul/l inoculated on medium pretreated with compound for 7 days followed by compound wash-out measured after 9 days (7.7 +/- 4.15 10^5/ml); format: functional
Colletotrichum coccodes [10] = assay: Antifungal activity against Colletotrichum coccodes infected tomato fruit assessed as suppression in lesion at 41.8 ul/l incubated for 20 min followed by compound wash out measured after 6 days relative to control; format: functional, organism-based
Colletotrichum coccodes [11] = assay: Antifungal activity against Colletotrichum coccodes infected tomato fruit assessed as lesion area at 44.8 ul/l incubated for 7 days post-inoculation (reference value: 1.64 +/- 0.62 cm2); format: functional
Colletotrichum coccodes [12] = assay: Antifungal activity against Colletotrichum coccodes assessed as colony area at 44.8 ul/l inoculated on medium pretreated with compound for 7 days followed by compound wash-out measured after 7 days (5.98 +/- 0.36 cm2); format: functional
Colletotrichum coccodes [13] = assay: Antifungal activity against Colletotrichum coccodes infected tomato fruit assessed as spore production at 44.8 ul/l inoculated on fruit pre-treated with compound for 7 days measured after 9 days (reference value: 11.2 +/- 4.29 10^5/ml); format: functional
Colletotrichum coccodes [14] = assay: Antifungal activity against Colletotrichum coccodes infected tomato fruit assessed as spore production at 44.8 ul/l incubated for 9 days post-inoculation (reference value: 1.6 +/- 0.92 10^5/ml); format: functional
Colletotrichum coccodes [15] = assay: Antifungal activity against Colletotrichum coccodes infected tomato fruit assessed as spore germination at 44.8 ul/l inoculated on fruit pre-treated with compound for 7 days followed by 7 days incubation measured 24 hr post spore-inoculation on medium (reference value: 88.8 +/- 5.19%); format: functional
Colletotrichum coccodes [16] = assay: Antifungal activity against Colletotrichum coccodes infected tomato fruit assessed as suppression in lesion at 41.8 ul/l inoculated on fruit pretreated with compound for 20 min measured after 9 days relative to control; format: functional

Row | SMILES | Activity (Colletotrichum coccodes [1]) | Activity (Colletotrichum coccodes [2]) [%] | Activity (Colletotrichum coccodes [3]) [cm2] | Activity (Colletotrichum coccodes [4]) [cm2] | Activity (Colletotrichum coccodes [5]) [×10⁵ /ml] | Activity (Colletotrichum coccodes [6]) [%] | Activity (Colletotrichum coccodes [7]) [%] | Activity (Colletotrichum coccodes [8]) [%] | Activity (Colletotrichum coccodes [9]) [×10⁵ /ml] | Activity (Colletotrichum coccodes [10]) | Activity (Colletotrichum coccodes [11]) [cm2] | Activity (Colletotrichum coccodes [12]) [cm2] | Activity (Colletotrichum coccodes [13]) [×10⁵ /ml] | Activity (Colletotrichum coccodes [14]) [×10⁵ /ml] | Activity (Colletotrichum coccodes [15]) [%] | Activity (Colletotrichum coccodes [16]) [%]
1 | Cl | Active |  |  |  |  |  |  |  |  |  |  |  |  |  |  | 
2 | CC/C=C\CC1C(=O)CCC1CC(=O)OC (configuration not stated) [METHYL JASMONATE] | Active | 51.6 | 8.18 | 4.74 | 6.9 | 99.5 | 99 | 23 | 7.6 | inactive | 2.79 | 4.55 | 7.7 | 1 | 55.2 | 20
